This note sets out measurements from PMC10583824, “The rational design of ARUK2007145, a dual inhibitor of the α and γ isoforms of the lipid kinase phosphatidylinositol 5-phosphate 4-kinase (PI5P4K)” (RSC Medicinal Chemistry, 2023).

Test [1] deals with T1, PI5P4Kα (Homo sapiens, UniProt P48426).
T1 sequence (P48426 1-406): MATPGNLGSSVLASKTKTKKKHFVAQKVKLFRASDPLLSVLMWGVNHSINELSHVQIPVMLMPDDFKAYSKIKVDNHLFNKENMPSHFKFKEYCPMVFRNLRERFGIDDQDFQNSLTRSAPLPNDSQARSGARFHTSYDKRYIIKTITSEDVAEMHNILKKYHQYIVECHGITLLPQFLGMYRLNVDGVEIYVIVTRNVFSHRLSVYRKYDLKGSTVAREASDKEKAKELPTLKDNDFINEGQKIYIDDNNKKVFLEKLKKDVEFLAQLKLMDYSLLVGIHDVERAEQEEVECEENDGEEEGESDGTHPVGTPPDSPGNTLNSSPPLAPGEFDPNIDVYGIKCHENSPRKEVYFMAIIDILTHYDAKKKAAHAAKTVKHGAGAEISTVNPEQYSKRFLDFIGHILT
In words: biochemical.

Test [2] addresses T2, PI5P4Kγ+ (Homo sapiens, UniProt Q8TBX8, D138G/D197E/E133P/E135D/E153T/E196G/G139A/N195G/S132L/S134N).
T2 sequence (Q8TBX8 with tags, fused parts or gaps INS131LPN/S132D/E133S/S134Q/E135A/G136R/D138G/G139A/E153T/N195G/E196G/D197E): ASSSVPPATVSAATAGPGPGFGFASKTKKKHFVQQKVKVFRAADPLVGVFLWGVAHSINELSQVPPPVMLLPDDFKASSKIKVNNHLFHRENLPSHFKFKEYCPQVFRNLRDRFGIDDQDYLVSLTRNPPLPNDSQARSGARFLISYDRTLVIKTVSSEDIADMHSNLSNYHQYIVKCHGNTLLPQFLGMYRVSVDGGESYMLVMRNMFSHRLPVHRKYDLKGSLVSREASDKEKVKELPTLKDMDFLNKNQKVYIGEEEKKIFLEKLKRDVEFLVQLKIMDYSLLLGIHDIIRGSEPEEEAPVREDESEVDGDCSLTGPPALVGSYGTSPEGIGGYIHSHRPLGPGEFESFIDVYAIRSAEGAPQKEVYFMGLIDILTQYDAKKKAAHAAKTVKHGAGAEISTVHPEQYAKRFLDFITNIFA
In words: biochemical.

Test [3] deals with PI5P4Kγ+. Conditions: ratio PI5P4Kα IC50 / PI5P4Kγ+ IC50, ADP-Glo.
For test [4], the target named is T1, PI5P4Kα. Conditions: for PI5P4Kα pIC50: ADP-Glo, footnote a: inconsistent replicates, value shown is upper limit; for ADP-Glo pIC50 PI5P4Kα: Table S1, two decimals, asterisk not explained.
Setting [5] is: ADP-Glo pIC50 PI5P4Kα, Table S1, two decimals, asterisk not explained.
The mark [6] stands for this setting: ADP-Glo pIC50 PI5P4Kγ+, Table S1, two decimals, asterisk not explained.
Setting [7] is: PI5P4Kγ+ pIC50, ADP-Glo, footnote a: inconsistent replicates, value shown is upper limit.

In the case of `COc1cnccc1-c1cc2ncnc(Nc3ccc(SC)cc3)c2s1` [COc1cnccc1-c1cc2ncnc(c2s1)Nc1ccc(cc1)SC], the concentration for half-maximal inhibition (IC50) on PI5P4Kα [1] (setting [5]) is 490 nM; at PI5P4Kγ+ [2] (setting [6]), 53.7 nM.

For `CSc1ccc(Nc2ncnc3cc(-c4c(C)noc4C)sc23)cc1` [CSc1ccc(cc1)Nc1ncnc2cc(sc12)-c1c(noc1C)C], the IC50 was 22.4 nM against PI5P4Kα [1] (setting [5]) and 32.4 nM against PI5P4Kγ+ [2] (setting [6]).

With `CSc1ccc(Nc2ncnc3cc(-c4cccnc4C)sc23)cc1` [CSc1ccc(cc1)Nc1ncnc2cc(sc12)-c1cccnc1C], the IC50 against PI5P4Kα [1] (setting [5]) was 77.6 nM; against PI5P4Kγ+ [2] (setting [6]), 17 nM.

Consider `CSc1ccc(Nc2ncnc3sc(-c4cncnc4)cc23)cc1` [CSc1ccc(cc1)Nc1ncnc2sc(cc12)-c1cncnc1], for which the half-maximal inhibitory concentration (IC50) against PI5P4Kα [1] (setting [5]) was 234 nM; against PI5P4Kγ+ [2] (setting [6]) it was 29.5 nM.

As to `CSc1ccc(Nc2ncnc3sc(C)cc23)cc1` [CSc1ccc(cc1)Nc1ncnc2sc(cc12)C], the IC50 against PI5P4Kα [1] (setting [5]) was 2340 nM; at PI5P4Kγ+ [2] (setting [6]), 178 nM.

As to `Cc1cc2c(Nc3ccc(N4CCCC4=O)c(C)c3)ncnc2s1` [Cc1cc2c(ncnc2s1)Nc1ccc(c(c1)C)N1CCCC1=O], the IC50 is 5370 nM on PI5P4Kα [1] (setting [5]) and 200 nM against PI5P4Kγ+ [2] (setting [6]).

In the case of `Cc1cc(Nc2ncnc3sc(-c4cccnc4Cl)cc23)ccc1Cl` [Cc1cc(ccc1Cl)Nc1ncnc2sc(cc12)-c1cccnc1Cl], the IC50 against PI5P4Kα [1] (setting [5]) is 2950 nM; on PI5P4Kγ+ [2] (setting [6]), 389 nM.

Take `Cc1cc(Cl)ccc1Nc1ncnc2sc(-c3cccnc3Cl)cc12` [Cc1cc(ccc1Nc1ncnc2sc(cc12)-c1cccnc1Cl)Cl]: the 50% inhibitory concentration (IC50) against PI5P4Kα [1] (setting [5]) is 5250 nM; at PI5P4Kγ+ [2] (setting [6]) it was 7940 nM.

In the case of `Cc1ccc(Nc2ncnc3sc(-c4cccnc4Cl)cc23)cc1` [Cc1ccc(cc1)Nc1ncnc2sc(cc12)-c1cccnc1Cl], the IC50 was 263 nM at PI5P4Kα [1] (setting [5]) and 427 nM against PI5P4Kγ+ [2] (setting [6]).

Consider `Cc1ccc(Nc2ncnc3sc(-c4cccnc4Cl)cc23)cc1C` [Cc1ccc(cc1C)Nc1ncnc2sc(cc12)-c1cccnc1Cl], for which the IC50 on PI5P4Kα [1] (setting [5]) is 490 nM; against PI5P4Kγ+ [2] (setting [6]), 8510 nM.

Take `Cc1cccc(Nc2ncnc3sc(-c4cccnc4Cl)cc23)c1` [Cc1cccc(c1)Nc1ncnc2sc(cc12)-c1cccnc1Cl]: the values for the IC50 against PI5P4Kα [1] (setting [5]) and on PI5P4Kγ+ [2] (setting [6]) were 1450 nM and 2340 nM, respectively.

As for `COc1ccc(-n2ncc3c(Nc4ccc(OC)c(Cl)c4)ncnc32)cc1` [Compound 4, reference compound], the “Fold-selectivity (α IC50/γ IC50)” value with PI5P4Kγ+ [3] is 0.032. Also, the 50% inhibitory concentration (IC50) at PI5P4Kγ+ [2] (setting [7]) was 12600 nM.

For `CS(=O)(=O)c1ccc(Nc2ncnc3sc(-c4ccncc4)cc23)cc1` [Compound 6], the “Fold-selectivity (α IC50/γ IC50)” value with PI5P4Kγ+ [3] was 63. The half-inhibitory concentration (IC50) is 1410 nM on PI5P4Kα [1] (setting [5]), 22.4 nM at PI5P4Kγ+ [2] (setting [6]) and 20 nM on PI5P4Kγ+ [2] (setting [7]). At PI5P4Kα [4], the “PI5P4Kα pIC50” value came to 5.9.

As to `CS(=O)(=O)c1ccc(Nc2ncnc3sc(-c4cn[nH]c4)cc23)cc1` [Compound 7], the “Fold-selectivity (α IC50/γ IC50)” value in the test with PI5P4Kγ+ [3] was 79. The IC50 against PI5P4Kγ+ [2] (setting [6]) was 15.5 nM. This compound showed an IC50 against PI5P4Kγ+ [2] (setting [7]) of 15.8 nM. At PI5P4Kα [4], the “PI5P4Kα pIC50” value was found to be 5.9 and the “ADP-Glo pIC50 PI5P4Kα” value came to 5.88.

Take `CS(=O)(=O)c1ccc(Nc2ncnc3sc(-c4cccnc4)cc23)cc1` [Compound 9]: in the test with PI5P4Kγ+ [3], the “Fold-selectivity (α IC50/γ IC50)” value came to 130. In addition, the IC50 against PI5P4Kα [1] (setting [5]) was 4570 nM; against PI5P4Kγ+ [2] (setting [6]) it was 34.7 nM; at PI5P4Kγ+ [2] (setting [7]), 31.6 nM. For the same compound, the “PI5P4Kα pIC50” value at PI5P4Kα [4] is recorded as 5.3.

For `COc1cnccc1-c1cc2c(Nc3ccc(S(C)(=O)=O)cc3)ncnc2s1` [Compound 11], the “Fold-selectivity (α IC50/γ IC50)” value in the test on PI5P4Kγ+ [3] turned out to be 79. The IC50 at PI5P4Kα [1] (PI5P4Kα pIC50, ADP-Glo, footnote a: inconsistent replicates, value shown is upper limit) is at least 2510 nM; against PI5P4Kγ+ [2] (setting [6]), 32.4 nM; on PI5P4Kγ+ [2] (setting [7]), at least 31.6 nM. In addition, the “ADP-Glo pIC50 PI5P4Kα” value on PI5P4Kα [4] is on record as 5.58.

With `CS(=O)(=O)c1ccc(Nc2ncnc3sc(-c4ccncc4F)cc23)cc1` [Compound 12], the “Fold-selectivity (α IC50/γ IC50)” value in the test on PI5P4Kγ+ [3] is given as over 250. The IC50 against PI5P4Kγ+ [2] (setting [7]) was 100 nM. For the same compound, at PI5P4Kα [4], the “PI5P4Kα pIC50” value is under 4.6.
